The record followed here is patent US9440933B2, “Azole derivative, method for producing same, intermediate compound, and agricultural or horticultural chemical agent and industrial material protecting agent” (KUREHA CORPORATION, priority 2011, dated 2016).

The structures appear in SMILES notation.

Data set [1] relates to Sclerotinia rot-causing microbe (Sclerotinia sclerotiorum). Briefly: Antimicrobial activity to various pathogenic microbes: S.s. The following applies: 50 mg/L.
Experimental: (§1) An inventive compound was dissolved in dimethylsulfoxide 2 ml. The solution 0.6 ml was added to a PDA medium (potato-dextrose-agar medium) 60 ml at around 60° C.
(§2) A flat plate containing a test microbe (wheat leaf blight-causing microbe) cultured separately was punched into pieces with a cork borer having a diameter of 4 mm and the circular plate obtained was placed on the flat plate media containing the chemical described above. The plates were cultured at 25° C. for 14 days after inoculation and the diameter of the microbial colony was determined. Hyphal expansion-inhibiting rate was calculated according to the following equation: R=100(dc−dt)/dc (wherein, R: hyphal expansion-inhibiting rate (%), dc: diameter of microbial colony on non-treated flat plate, dt: diameter of microbial colony on chemically-treated flat plate).
(§3) The results thus obtained were evaluated in 5 stages according to the criteria below:
Sclerotinia rot-causing microbe (Sclerotinia sclerotiorum) S.s
Data set [2] concerns Apple alternaria blotch-causing microbe (Alternaria alternata). Briefly: Antimicrobial activity to various pathogenic microbes: A.m. The following applies: 50 mg/L.
Experimental: as §1, §2
(§4) In this Test Example, the antimicrobial activity of the inventive compounds to various plant disease-causing fungi and industrial material-eroding microorganisms was studied by the method described in Example 1.
as §3
Apple alternaria blotch-causing microbe (Alternaria alternata) A.m
Data set [3] concerns Wheat fusarium blight-causing microbe (Fusarium graminearum). Format: cell-based. The following applies: 50 mg/L.
Data set [4] has as its system Barley loose smut-causing microbe (Ustilago nuda). Description: Antimicrobial activity to various pathogenic microbes: U.n. The following applies: 50 mg/L.
Data set [5] concerns Barley scald-causing microbe (Rhynchosporium secalis). Briefly: Antimicrobial activity to various pathogenic microbes: R.sec. The following applies: 50 mg/L.
Experimental: as §1, §2, §4, §3
Barley scald-causing microbe (Rhynchosporium secalis) R.sec
Data set [6] concerns wheat leaf rust-causing microbe. Description: Wheat leaf rust-controlling activity (foliar spray, pot test). Format: in vivo, Puccinia recondita. The following applies: Concentration 25 g/ha; wettable powder sprayed on wheat (Norin No. 61), 9 to 14 days after inoculation.
The test system of a further data set is wheat. Description: Damage to wheat (growth inhibition) by seed treatment (pot test). The following applies: 2 mg in DMSO applied to wheat seeds 1 g, 14 to 28 days after seeding, larger index = smaller damage.
The test system of data set [7] is Gray mold-causing microbe (Botrytis cinerea). Briefly: Antimicrobial activity to various pathogenic microbes: B.c. The following applies: 50 mg/L.
Data set [8] relates to Rice bakanae disease-causing microbe (Gibberella fujikuroi). Briefly: Antimicrobial activity to various pathogenic microbes: G.f. The following applies: 50 mg/L.
Experimental: as §1, §2, §3
Data set [9] concerns wheat leaf blight-causing microbe. Briefly: Antimicrobial activity to wheat leaf blight-causing microbe (PDA plate, hyphal expansion inhibition). Format: cell-based, Septoria tritici. The following applies: PDA medium, 25° C., 14 days; for inhibition at 50 µg/mL: read-out: Growth inhibition. As for the experimental part: In this Test Example, antimicrobial activity of the inventive compounds to wheat leaf blight-causing microbe was determined and compared with that of the comparative compound (1).

Data set [10] has as its system Cucumber Fusarium wilt-causing microbe (Fusarium oxysporum). Description: Antimicrobial activity to various pathogenic microbes: F.c. The following applies: 50 mg/L.
In data set [11] the test system is Wheat eye spot-causing microbe (Pseudocercoporella herpotrichoides). Briefly: Antimicrobial activity to various pathogenic microbes: P.h. The following applies: 50 mg/L.
The subject of data set [12] is wheat powdery mildew-causing microbes. Briefly: Controlling activity to wheat powdery mildew of seed treatment (pot test). Format: in vivo, Erysiphe graminis f. sp tritici. The following applies: 2 mg in DMSO applied to wheat seeds 1 g, 14 to 28 days after seeding. On the procedure:
Controlling activity to wheat powdery mildew was examined in a pot test. Each of the inventive compounds […]-53, and a comparative compound (1) was weighed in an amount of 2 mg and dissolved in DMSO (18 μl). The solution thus prepared was applied to wheat seeds 1 g in a vial, 8 wheat seeds were seeded in a 80 cm^2 pot. The wheat was grown, as water was supplied from blow, in a greenhouse where wheat powdery mildew-causing microbes are present abundantly. The incidence rate was determined and the controlling rate and additionally the controlling index calculated 14 to 28 days after seeding. The controlling rate was calculated and the wheat powdery mildew controlling index determined according to the following equation: Controlling rate=(1-Incidence rate in treated region/Incidence rate in non-treated region)×100(%) [table]

Data set [13] relates to Wheat glume blotch-causing microbe (Phaeosphaeria nodorum). Description: Antimicrobial activity to various pathogenic microbes: P.n. The following applies: 50 mg/L.
Experimental: as §1, §2, §4, §3
Wheat glume blotch-causing microbe (Phaeosphaeria nodorum) P.n
The test system of data set [14] is Rice blast-causing microbe (Pyricularia oryzae). Format: cell-based. The following applies: 50 mg/L.

As to `CCOC(=O)[C@]1(C)CC[C@@H](Cc2ccc(Cl)cc2)[C@]1(O)Cn1cncn1` (racemic) [Compound I-3, ethyl-(1RS,2RS,3SR)-3-(4-chlorobenzyl)-2-hydroxy-1-methyl-2-(1H-1,2,4-triazol-1-ylmethyl)cyclopentanecarboxylate], the “Growth inhibition (hyphal expansion-inhibiting rate grade) S.s” value in data set [1] is recorded as 5 (hyphal expansion-inhibiting rate: 80% or more). The “Growth inhibition (hyphal expansion-inhibiting rate grade) A.m” value in data set [2] is 5 (hyphal expansion-inhibiting rate: 80% or more). In addition, in data set [3], the “Growth inhibition (hyphal expansion-inhibiting rate grade) F.g” value was 5 (hyphal expansion-inhibiting rate: 80% or more). For the same molecule, the “Growth inhibition (hyphal expansion-inhibiting rate grade) U.n” value in [4] is 5 (hyphal expansion-inhibiting rate: 80% or more). For the same molecule, in data set [5], the “Growth inhibition (hyphal expansion-inhibiting rate grade) R.sec” value is 5 (hyphal expansion-inhibiting rate: 80% or more). For the same molecule, the Controlling index in data set [6] is reported as 5 (81 to 100). Also, the “Damage index Growth inhibition” value with wheat is 1 (60% or more and less than 80%). The “Growth inhibition (hyphal expansion-inhibiting rate grade) B.c” value in data set [7] is on record as 5 (hyphal expansion-inhibiting rate: 80% or more). For the same molecule, the “Growth inhibition (hyphal expansion-inhibiting rate grade) G.f” value in data set [8] is listed as 5 (hyphal expansion-inhibiting rate: 80% or more). Moreover, the inhibition at 50 µg/mL in data set [9] (336 h, Concentration 50 mg/L) was over 80%. In addition, the inhibition at 1.25 µg/mL in data set [9] (336 h, test sample concentration 1.25 mg/L, read-out: hyphal expansion-inhibiting rate) was at least 80%. In addition, in data set [10], the “Growth inhibition (hyphal expansion-inhibiting rate grade) F.c” value was 5 (hyphal expansion-inhibiting rate: 80% or more). Moreover, the “Growth inhibition (hyphal expansion-inhibiting rate grade) P.h” value in [11] is reported as 5 (hyphal expansion-inhibiting rate: 80% or more). The “Controlling index Wheat powdery mildew” value in data set [12] is 5 (Controlling rate: 40 or more). Besides, in data set [13], the “Growth inhibition (hyphal expansion-inhibiting rate grade) P.n” value is listed as 5 (hyphal expansion-inhibiting rate: 80% or more). Further, the “Growth inhibition (hyphal expansion-inhibiting rate grade) P.o” value in data set [14] is listed as 5 (hyphal expansion-inhibiting rate: 80% or more).
`C=CCOC(=O)[C@]1(C)CC[C@@H](Cc2ccc(Cl)cc2)[C@]1(O)Cn1cncn1` (racemic) [Compound I-4, allyl-(1RS,2RS,3SR)-3-(4-chlorobenzyl)-2-hydroxy-1-methyl-2-(1H-1,2,4-triazol-1-ylmethyl)cyclopentanecarboxylate]: the “Growth inhibition (hyphal expansion-inhibiting rate grade) S.s” value in data set [1] is given as 5 (hyphal expansion-inhibiting rate: 80% or more). Moreover, the “Growth inhibition (hyphal expansion-inhibiting rate grade) A.m” value in data set [2] was 5 (hyphal expansion-inhibiting rate: 80% or more). The “Growth inhibition (hyphal expansion-inhibiting rate grade) F.g” value in [3] is 5 (hyphal expansion-inhibiting rate: 80% or more). Also, the “Growth inhibition (hyphal expansion-inhibiting rate grade) U.n” value in data set [4] was 5 (hyphal expansion-inhibiting rate: 80% or more). Moreover, the “Growth inhibition (hyphal expansion-inhibiting rate grade) R.sec” value in [5] was 5 (hyphal expansion-inhibiting rate: 80% or more). For the same molecule, the Controlling index in data set [6] is on record as 5 (81 to 100). Also, the “Growth inhibition (hyphal expansion-inhibiting rate grade) B.c” value in data set [7] is reported as 5 (hyphal expansion-inhibiting rate: 80% or more). Besides, the “Growth inhibition (hyphal expansion-inhibiting rate grade) G.f” value in data set [8] is given as 5 (hyphal expansion-inhibiting rate: 80% or more). For the same molecule, the inhibition at 50 µg/mL in data set [9] (336 h, Concentration 50 mg/L) is over 80%. Further, the “Growth inhibition (hyphal expansion-inhibiting rate grade) F.c” value in data set [10] is 5 (hyphal expansion-inhibiting rate: 80% or more). The “Growth inhibition (hyphal expansion-inhibiting rate grade) P.h” value in [11] is given as 5 (hyphal expansion-inhibiting rate: 80% or more). Besides, the “Growth inhibition (hyphal expansion-inhibiting rate grade) P.n” value in data set [13] was 5 (hyphal expansion-inhibiting rate: 80% or more). Moreover, in [14], the “Growth inhibition (hyphal expansion-inhibiting rate grade) P.o” value is given as 5 (hyphal expansion-inhibiting rate: 80% or more).
For the molecule `COC(=O)[C@@]1(CCl)CC[C@H](Cc2ccc(F)cc2)[C@@]1(O)Cn1cncn1` (racemic) [Compound I-78, methyl-(1RS, 2SR,3RS)-3-(4-fluorobenzyl)-1-chloromethyl-2-hydroxy-2-(1H-1,2,4-triazol-1-ylmethyl)cyclopentanecarboxylate], the “Growth inhibition (hyphal expansion-inhibiting rate grade) S.s” value in [1] is 5 (hyphal expansion-inhibiting rate: 80% or more). For the same molecule, the “Growth inhibition (hyphal expansion-inhibiting rate grade) A.m” value in data set [2] is 5 (hyphal expansion-inhibiting rate: 80% or more). In addition, in [3], the “Growth inhibition (hyphal expansion-inhibiting rate grade) F.g” value is 5 (hyphal expansion-inhibiting rate: 80% or more). In addition, the “Growth inhibition (hyphal expansion-inhibiting rate grade) U.n” value in [4] is 5 (hyphal expansion-inhibiting rate: 80% or more). In addition, in data set [5], the “Growth inhibition (hyphal expansion-inhibiting rate grade) R.sec” value is given as 5 (hyphal expansion-inhibiting rate: 80% or more). Besides, in [6], the Controlling index is recorded as 5 (81 to 100). Moreover, in data set [7], the “Growth inhibition (hyphal expansion-inhibiting rate grade) B.c” value was 5 (hyphal expansion-inhibiting rate: 80% or more). For the same molecule, in data set [8], the “Growth inhibition (hyphal expansion-inhibiting rate grade) G.f” value was 5 (hyphal expansion-inhibiting rate: 80% or more). For the same molecule, in data set [9] (336 h, Concentration 50 mg/L), the inhibition at 50 µg/mL is over 80%. In addition, the “Growth inhibition (hyphal expansion-inhibiting rate grade) F.c” value in [10] is on record as 5 (hyphal expansion-inhibiting rate: 80% or more). Also, the “Growth inhibition (hyphal expansion-inhibiting rate grade) P.h” value in data set [11] was 5 (hyphal expansion-inhibiting rate: 80% or more). In addition, the “Growth inhibition (hyphal expansion-inhibiting rate grade) P.n” value in [13] is reported as 5 (hyphal expansion-inhibiting rate: 80% or more). The “Growth inhibition (hyphal expansion-inhibiting rate grade) P.o” value in data set [14] was 5 (hyphal expansion-inhibiting rate: 80% or more).
Take `C#CCOC(=O)[C@]1(C)CC[C@H](Cc2ccc(Cl)cc2)[C@@]1(O)Cn1cncn1` (racemic) [Compound I-135, 2-propynyl-(1RS,2SR,3RS)-3-(4-chlorobenzyl)-2-hydroxy-1-methyl-2-(1H-1,2,4-triazol-1-ylmethyl)cyclopentanecarboxylate]: the “Growth inhibition (hyphal expansion-inhibiting rate grade) S.s” value in data set [1] was 5 (hyphal expansion-inhibiting rate: 80% or more). In [2], the “Growth inhibition (hyphal expansion-inhibiting rate grade) A.m” value is recorded as 5 (hyphal expansion-inhibiting rate: 80% or more). For the same molecule, the “Growth inhibition (hyphal expansion-inhibiting rate grade) F.g” value in data set [3] is listed as 5 (hyphal expansion-inhibiting rate: 80% or more). In addition, in data set [4], the “Growth inhibition (hyphal expansion-inhibiting rate grade) U.n” value was 5 (hyphal expansion-inhibiting rate: 80% or more). The “Growth inhibition (hyphal expansion-inhibiting rate grade) R.sec” value in [5] is given as 5 (hyphal expansion-inhibiting rate: 80% or more). In addition, the Controlling index in data set [6] was 5 (81 to 100). Further, the “Growth inhibition (hyphal expansion-inhibiting rate grade) B.c” value in data set [7] is listed as 5 (hyphal expansion-inhibiting rate: 80% or more). The “Growth inhibition (hyphal expansion-inhibiting rate grade) G.f” value in data set [8] was 5 (hyphal expansion-inhibiting rate: 80% or more). The Growth inhibition in data set [9] (Concentration 50 mg/L) is listed as 5 (hyphal expansion-inhibiting rate: 80% or more). Further, in data set [10], the “Growth inhibition (hyphal expansion-inhibiting rate grade) F.c” value is listed as 5 (hyphal expansion-inhibiting rate: 80% or more). Further, the “Growth inhibition (hyphal expansion-inhibiting rate grade) P.h” value in data set [11] is listed as 5 (hyphal expansion-inhibiting rate: 80% or more). Further, the “Growth inhibition (hyphal expansion-inhibiting rate grade) P.n” value in data set [13] was 5 (hyphal expansion-inhibiting rate: 80% or more). Besides, the “Growth inhibition (hyphal expansion-inhibiting rate grade) P.o” value in data set [14] was 5 (hyphal expansion-inhibiting rate: 80% or more).
